Literature values as cited in publication PMC11998001, “Towards P2X4 Positron Emission Tomography Tracing” (Journal of Medicinal Chemistry, 2025).

Tests used:
[1] = for blood-brain barrier (BBB) permeation of radioligand (in words): in vivo, 18F-radiolabeled form
[2] = test system: tactile allodynia; set-up: method as in PMID 33125712
[3] = test system: hP2X4R
[4] = for MLM stability: mouse, microsomes, 1.5 h
[5] = test system: NLRP3 Inflammasome in macrophages; set-up: method as in PMID 39805099
[6] = pH 7.4
[7] = set-up: method as in PMID 33125712

For `Cc1cc([18F])ccc1S(=O)(=O)Nc1ccc(N2C(=O)CC(=O)Nc3c2ccc2ccccc32)cc1` [Erlitz [^18F]44], the “in vivo metabolism of radioligand (in words)” value [1] is listed as “rapid, in vivo metabolism” and the “blood-brain barrier (BBB) permeation of radioligand (in words)” value [1] is listed as “almost no blood–brain barrier (BBB) permeation”.
In the case of `Fc1ccc([C@@H]2CCNC[C@H]2COc2ccc3c(c2)OCO3)cc1` [Paroxetine], the “effect on tactile allodynia (in words)” value [2] is listed as “reverse tactile allodynia”.
In the case of `O=C1CN=C(c2cccc(Br)c2)c2oc3ccccc3c2N1` [5-BDBD], the “water solubility (in words)” value is listed as “low water solubility”.
In the case of `Cc1ccc(S(=O)(=O)N2c3ccccc3Oc3ccccc32)cc1` [PSB-12062], the “water solubility (in words)” value is listed as “more water-soluble than the first”.
In the case of `O=C(OCc1ccccc1)N1c2ccccc2Oc2ccccc21` [PSB-12054], the IC50 ([3]; representative P2X4 antagonists, Figure 2) is listed as 190 nM.
In the case of `Cc1cc(F)ccc1CS(=O)(=O)Nc1ccc(N2C(=O)CC(=O)Nc3c2ccc2ccccc32)cc1` [Erlitz 64], the MLM stability [4] is listed as 64%, the “NLRP3 inflammasome activation / interleukin-1β release (in words)” value [5] is listed as “able to block NLRP3 inflammasome activation” and the logD7.4 [6] is listed as 3.68.
For `CC(C)c1cc(Br)c(NC(=O)Nc2cccnc2)c(Br)c1` [BX-430], the “antagonist potency at the hP2X4 receptor (in words)” value ([3]; allosteric antagonist) is given as “submicromolar”.
In the case of `Cc1cc([18F])ccc1CS(=O)(=O)Nc1ccc(N2C(=O)CC(=O)Nc3c2ccc2ccccc32)cc1` [Erlitz [^18F]64], the “in vivo metabolism of radioligand (in words)” value [1] is given as “rapid, in vivo metabolism” and the “blood-brain barrier (BBB) permeation of radioligand (in words)” value [1] is given as “almost no blood–brain barrier (BBB) permeation”.
For `O=C1CC(=O)N(c2cccc(-c3noc(=S)[nH]3)c2)c2ccc3ccccc3c2N1` [NP-1815-PX], the “water solubility (in words)” value is listed as “high potency and water solubility”.
For `Cc1cc(F)ccc1S(=O)(=O)Nc1ccc(N2C(=O)CC(=O)Nc3c2ccc2ccccc32)cc1` [Erlitz 44], the “stability in mouse microsomes (in words)” value [4] is given as “higher stability in mouse microsomes”, the MLM stability [4] is given as 93% and the “NLRP3 inflammasome activation / interleukin-1β release (in words)” value [5] is given as “able to block NLRP3 inflammasome activation”. For the same compound, the logD7.4 [6] was 3.59.
In the case of `CNCC[C@H](Oc1cccc2ccccc12)c1cccs1` [Duloxetine], the “effect on tactile allodynia (in words)” value [2] is given as “reverse tactile allodynia”.
For `NS(=O)(=O)c1cc(NC(=O)Cc2ccccc2)ccc1Oc1cccc(Cl)c1` [BAY-1797], the “water solubility (in words)” value is listed as “high water solubility” and the “blood-brain barrier permeation (in words)” value [7] is listed as “does not permeate the blood–brain barrier”.
